The source made the active and inactive calls. The rule behind the calls is not given here.
Legend:
A549 [1] = assay: Induction of mitochondria mediated apoptosis in human A549 cells assessed as reduction in HK2 level at […] incubated for 48 hrs by immunofluorescence confocal microscopic analysis; assay type: functional, cell-based
A549 [2] = assay: Induction of apoptosis in human A549 cells assessed as downregulation of AKT phosphorylation at 1 to 10 uM incubated for 48 hrs by Western blotting analysis; assay type: functional, cell-based; conditions: dose 1-10 µM
A549 [3] = assay: Induction of apoptosis in human A549 cells assessed as late apoptotic cells at 10 uM incubated for 48 hrs by Annexin V-FITC/PI staining based flow cytometry; assay type: functional
A549 [4] = assay: Induction of apoptosis in human A549 cells assessed as early apoptotic cells at 1 uM incubated for 48 hrs by Annexin V-FITC/PI staining based flow cytometry; assay type: functional
A549 [5] = assay: Induction of apoptosis in human A549 cells assessed as upregulation of Bax expression at 1 to 10 uM incubated for 48 hrs by Western blotting analysis; assay type: functional, cell-based; conditions: dose 1-10 µM
A549 [6] = assay: Inhibition of glycolysis in human A549 cells assessed as downregulation of HK2 expression incubated for 48 hrs by Western blotting analysis; assay type: functional, cell-based
A549 [7] = assay: Induction of apoptosis in human A549 cells assessed as late apoptotic cells at 5 uM incubated for 48 hrs by Annexin V-FITC/PI staining based flow cytometry; assay type: functional
Mitochondrial membrane = assay: Induction of mitochondrial membrane potential loss in human A549 cells at 1 to 10 uM incubated for 48 hrs by JC-1 dye based fluorescence microscopic analysis; assay type: cell membranes; conditions: dose 1-10 µM
A549 [8] = assay: Inhibition of glycolysis in human A549 cells assessed as downregulation of HK2 expression in mitochondrial fraction at 1 to 10 uM incubated for 48 hrs by Western blotting analysis; assay type: functional, cell-based; conditions: dose 1-10 µM
A549 [9] = assay: Induction of apoptosis in human A549 cells assessed as upregulation of Cyt C expression in cytosol fraction at 1 to 10 uM incubated for 48 hrs by Western blotting analysis; assay type: functional, cell-based; conditions: dose 1-10 µM
A549 [10] = assay: Inhibition of glycolysis in human A549 cells assessed as downregulation of GLUT1 expression at 1 to 10 uM incubated for 48 hrs by Western blotting analysis; assay type: functional, cell-based; conditions: dose 1-10 µM
A549 [11] = assay: Induction of apoptosis in human A549 cells assessed as downregulation of Cyt C expression in mitochondrial fraction at 1 to 10 uM incubated for 48 hrs by Western blotting analysis; assay type: functional, cell-based; conditions: dose 1-10 µM
A549 [12] = assay: Inhibition of glycolysis in human A549 cells assessed as reduction in lactate production at 10 uM incubated for 48 hrs by trypan blue staining based spectrophotometry; assay type: functional
BEAS-2B = assay: Antiproliferative activity against human BEAS-2B cells assessed as inhibition of cell growth incubated for 48 hrs by MTT assay; assay type: toxicity, cell-based
A549 [13] = assay: Inhibition of glycolysis in human A549 cells assessed as reduction in glucose uptake incubated for 48 hrs by Amplex red dye based spectrophotometry; assay type: functional, cell-based
A549 [14] = assay: Antiproliferative activity against human A549 cells assessed as reduction in cell viability incubated for 48 hrs by MTT assay; assay type: functional, cell-based
MDA-MB-231 = assay: Antiproliferative activity against human MDA-MB-231 cells assessed as inhibition of cell growth incubated for 48 hrs by MTT assay; assay type: functional, cell-based; conditions: MDA-MB-231, 48 h
A549 [15] = assay: Inhibition of glycolysis in human A549 cells assessed as downregulation of HK2 expression in cytosol fraction at 1 to 10 uM incubated for 48 hrs by Western blotting analysis; assay type: functional, cell-based; conditions: dose 1-10 µM
A549 [16] = assay: Antiproliferative activity against human A549 cells assessed as inhibition of cell growth incubated for 48 hrs by MTT assay; assay type: functional, cell-based; conditions: A549, 48 h
A549 [17] = assay: Induction of apoptosis in human A549 cells assessed as early apoptotic cells at 10 uM incubated for 48 hrs by Annexin V-FITC/PI staining based flow cytometry; assay type: functional
A549 [18] = assay: Induction of apoptosis in human A549 cells assessed as downregulation of AKT expression at 1 to 10 uM incubated for 48 hrs by Western blotting analysis; assay type: functional, cell-based; conditions: dose 1-10 µM
A549 [19] = assay: Induction of apoptosis in human A549 cells assessed as early apoptotic cells at 5 uM incubated for 48 hrs by Annexin V-FITC/PI staining based flow cytometry; assay type: functional
A549 [20] = assay: Induction of apoptosis in human A549 cells assessed as late apoptotic cells at 1 uM incubated for 48 hrs by Annexin V-FITC/PI staining based flow cytometry; assay type: functional
A549 [21] = assay: Induction of apoptosis in human A549 cells assessed as downregulation of Bcl-2 expression at 1 to 10 uM incubated for 48 hrs by Western blotting analysis; assay type: functional, cell-based; conditions: dose 1-10 µM
A549 [22] = assay: Induction of apoptosis in human A549 cells assessed as increase in ratio of Bax/Bcl-2 at 1 to 10 uM incubated for 48 hrs by Western blotting analysis; assay type: functional, cell-based; conditions: dose 1-10 µM
A549 [23] = assay: Inhibition of glycolysis in human A549 cells assessed as reduction in lactate production at 1 uM incubated for 48 hrs by trypan blue staining based spectrophotometry; assay type: functional
A549 [24] = assay: Inhibition of glycolysis in human A549 cells assessed as downregulation of GLUT1 expression in cytosol fraction at 1 to 10 uM incubated for 48 hrs by Western blotting analysis; assay type: functional, cell-based; conditions: dose 1-10 µM
A549 [25] = assay: Induction of mitochondria mediated apoptosis in human A549 cells assessed as reduction in HK2 level at 1 to 10 uM incubated for 48 hrs by immunofluorescence confocal microscopic analysis; assay type: functional, cell-based; conditions: dose 1-10 µM
A549 [26] = assay: Inhibition of glycolysis in human A549 cells assessed as reduction in lactate production at 5 uM incubated for 48 hrs by trypan blue staining based spectrophotometry; assay type: functional
A549 [27] = assay: Inhibition of glycolysis in human A549 cells assessed as decrease in HK2 activity incubated for 48 hrs by spectrophotometric assay; assay type: functional, cell-based; conditions: A549, 48 h

How did the Activity (A549 [1]) turn out when `OC[C@H]1OC(O)C[C@@H](O)[C@@H]1O` (some centres not stated) was run?
The Activity was “Active”.

How did the Activity (A549 [2]) turn out when `COc1cc(CCc2ccccc2Cl)cc(OC)c1O` was run?
Its Activity is “Active”.

What about the Activity (A549 [3]) of the same compound?
The Activity was 34.5%.

What about the Activity (A549 [4]) of the same compound?
Its Activity is 16.9%.

What about the Activity (A549 [5]) of the same compound?
Its Activity is “Active”.

What about the inhibition (A549 [6]) of the same compound?
The inhibition was “Dose-dependent-effect”.

And the Activity (A549 [7])?
The Activity was 24.7%.

And the Activity (Mitochondrial membrane)?
Its Activity is “Active”.

What about the inhibition (A549 [8]) of the same compound?
Its inhibition is “Dose-dependent-effect”.

And the Activity (A549 [9])?
The Activity was “Active”.

What about the inhibition (A549 [10]) of the same compound?
The inhibition was “Active”.

And the Activity (A549 [11])?
Its Activity is “Active”.

And the Activity (A549 [12])?
The Activity was 3.91 mmol/L.

And the Activity (BEAS-2B)?
Its Activity is “Toxic”.

What about the inhibition (A549 [13]) of the same compound?
Its inhibition is “Dose-dependent-effect”.

What about the Activity (A549 [14]) of the same compound?
Its Activity is “Dose-dependent-effect”.

What about the IC50 (MDA-MB-231) of the same compound?
The IC50 was 19.2 µM.

What about the inhibition (A549 [15]) of the same compound?
Its inhibition is “inactive”.

And the IC50 (A549 [16])?
The IC50 was 2720 nM.

What about the Activity (A549 [17]) of the same compound?
Its Activity is 33.53%.

What about the Activity (A549 [18]) of the same compound?
Its Activity is “inactive”.

And the Activity (A549 [19])?
Its Activity is 30.9%.

What about the Activity (A549 [20]) of the same compound?
The Activity was 21.6%.

What about the Activity (A549 [21]) of the same compound?
The Activity was “Active”.

What about the Activity (A549 [22]) of the same compound?
Its Activity is “Active”.

What about the Activity (A549 [23]) of the same compound?
The Activity was 4.54 mmol/L.

What about the inhibition (A549 [24]) of the same compound?
Its inhibition is “inactive”.

What about the Activity (A549 [25]) of the same compound?
The Activity was “Active”.

What about the Activity (A549 [26]) of the same compound?
Its Activity is 4.38 mmol/L.

What about the IC50 (A549 [27]) of the same compound?
The IC50 was about 10 µM.

For `CC(C)=CCC[C@]1(C)C=Cc2c(O)c3c(c(CC=C(C)C)c2O1)O[C@]12C(=C[C@@H]4C[C@H]1C(C)(C)O[C@@]2(C/C=C(/C)C(=O)O)C4=O)C3=O` [GAMBOGIC ACID], which Activity (A549 [3]) is on record?
Its Activity is 30.2%.

What about the Activity (A549 [17]) of the same compound?
Its Activity is 30.67%.
